Test results from patent publication EP0350012A2, “Antiviral composition” (MEIJI SEIKA KAISHA LTD., priority 1988, dated 1990).
In brackets after ≈: the same amount, converted by molar mass. Where two headings read alike, the source gives them in different places.

Tests used:
[1] = tested on: Molt-4 cells and Molt-4/HIV cells; assay: cells; format: cell-based; settings: for 50% Inhibitory Concentration (IC₅₀): giant cell formation inhibition, as indicated in Example 4
Experimental: After a test drug was dissolved in methanol medium for tissue culture was added to the solution to make a definite concentration. The concentration of methanol was finally adjusted to less than 2 %. HIV persistent injection Molt-4 cells (Molt-4/HIV cells) were precultured for 24 hours in the presence of the compound. The precultured Molt-4/HIV cells were mixed with HIV-non-infected Molt-4 cells, whereby the compound was prepared to have the same concentration as that of the preculture. The mixture was then cultured. Giant cell formation was compared between chemically intact control cells and the group to which the compound has been added 5 and 20 hours after mixing the culture to evaluate the effect of the chemical. The evaluation was made based on the method of Yamamoto et al. (Virology, 164, 542 - 546, 1988). The evaluation effect is shown in Table 1 in terms of fusion index.

[2] = tested on: mice; assay: Acute toxicity test, oral administration to mice; format: in vivo; settings: 4g/kg administered orally, 3 mice in each group
Source text: The compounds of the present invention have low toxicity.

[3] = Homo sapiens, MOLT-4, read-out: 50% Inhibitory Concentration (IC₅₀)
[4] = 12.5 µg/ml, mixed culture 5 hours
[5] = 12.5 µg/ml, mixed culture 20 hours
[6] = 25 µg/ml, mixed culture 5 hours
[7] = 25 µg/ml, mixed culture 20 hours
[8] = 50 µg/ml, mixed culture 5 hours
[9] = 50 µg/ml, mixed culture 20 hours
[10] = 100 µg/ml, mixed culture 5 hours
[11] = 100 µg/ml, mixed culture 20 hours
[12] = 200 µg/ml, mixed culture 5 hours
[13] = 200 µg/ml, mixed culture 20 hours
[14] = Homo sapiens, MOLT-4, 5 h, read-out: Giant cell formation inhibitory rate (%)
[15] = Homo sapiens, MOLT-4, 20 h, read-out: Giant cell formation inhibitory rate (%)
[16] = Homo sapiens, MOLT-4, read-out: 50 % of inhibitory concentration (IC₅₀ value) of the giant cell formation inhibition

**Q.** Which IC50 [1, 3] does the source give for OC[C@@H]1[C@@H](O)[C@H](O)[C@@H](O)CN1CCOc1ccccc1 [Control, N-(2-Phenoxyethyl)-1-deoxynojirimycin, reference compound] here?
**A.** 20 to 40 µg/mL (≈ 70.6 to 141 µM)

**Q.** With OC[C@@H]1[C@@H](O)[C@H](O)[C@@H](O)CN1CCCc1ccccc1 [Example 1, N-(3-phenylpropyl)-1-deoxynojirimycin] as the molecule, how does the Fusion index [1, 4] read?
**A.** 0.11

**Q.** And the Fusion index [1, 5]?
**A.** 0.34

**Q.** And the Fusion index [1, 6]?
**A.** -0.07

**Q.** And the Fusion index [1, 7]?
**A.** 0.18

**Q.** What about the Fusion index [1, 8] of the same molecule?
**A.** 0.19

**Q.** And the Fusion index [1, 9]?
**A.** 0.13

**Q.** What about the Fusion index [1, 10] of the same molecule?
**A.** 0

**Q.** And the Fusion index [1, 11]?
**A.** 0.05

**Q.** What about the Fusion index [1, 12] of the same molecule?
**A.** 0.23

**Q.** What about the Fusion index [1, 13] of the same molecule?
**A.** 0.18

**Q.** And the “effect of inhibiting the formation of giant cells” value ([1]; 20 hours after mixing the culture)?
**A.** about 90%

**Q.** And the inhibition at 12.5 µg/mL [1, 14]?
**A.** 79.6%

**Q.** And the inhibition at 25 µg/mL [1, 14]?
**A.** 100%

**Q.** What about the inhibition at 50 µg/mL [1, 14] of the same molecule?
**A.** 64.8%

**Q.** And the inhibition at 100 µg/mL [1, 14]?
**A.** 100%

**Q.** And the inhibition at 200 µg/mL [1, 14]?
**A.** 57.4%

**Q.** And the inhibition at 12.5 µg/mL [1, 15]?
**A.** 82.1%

**Q.** And the inhibition at 25 µg/mL [1, 15]?
**A.** 90.5%

**Q.** And the inhibition at 50 µg/mL [1, 15]?
**A.** 93.2%

**Q.** What about the inhibition at 100 µg/mL [1, 15] of the same molecule?
**A.** 97.4%

**Q.** What about the inhibition at 200 µg/mL [1, 15] of the same molecule?
**A.** 90.5%

**Q.** What about the IC50 [1, 16] of the same molecule?
**A.** 5 to 10 µg/mL (≈ 17.8 to 35.5 µM)

**Q.** And the “microscopic observation of giant cell formation” value ([1]; compared to the control cells)?
**A.** clearly inhibited the formation of giant cells

**Q.** What does the source list for OC[C@@H]1[C@@H](O)[C@H](O)[C@@H](O)CN1CC=Cc1ccccc1 [Example 2, N-(3-phenyl-2-propenyl)-1-deoxynojirimycin]?
**A.** Fusion index [1, 4]: 0.14; Fusion index [1, 5]: -0.03; Fusion index [1, 6]: 0.17; Fusion index [1, 7]: -0.08; Fusion index [1, 8]: 0.06; Fusion index [1, 9]: -0.07; Fusion index [1, 10]: -0.10; Fusion index [1, 11]: 0.10; Fusion index [1, 12]: -0.08; Fusion index [1, 13]: 0.10; inhibition at 12.5 µg/mL [1, 14]: 74.1%; inhibition at 25 µg/mL [1, 14]: 68.5%; inhibition at 50 µg/mL [1, 14]: 88.9%; inhibition at 100 µg/mL [1, 14]: 100%; inhibition at 200 µg/mL [1, 14]: 100%; inhibition at 12.5 µg/mL [1, 15]: 100%; inhibition at 25 µg/mL [1, 15]: 100%; inhibition at 50 µg/mL [1, 15]: 100%; inhibition at 100 µg/mL [1, 15]: 94.7%; inhibition at 200 µg/mL [1, 15]: 94.7%; IC50 [1, 16]: 2.5 to 5 µg/mL (≈ 8.95 to 17.9 µM); giant cell formation inhibiting effect ([1]; Table 2): 90-100%; survival in the acute toxicity test [2]: all of the tested mice survived

**Q.** Which results are given for OC[C@@H]1[C@@H](O)[C@H](O)[C@@H](O)CN1CCC(c1ccccc1)c1ccccc1 [Example 3, N-(3,3-diphenyl-propyl)-1-deoxynojirimycin]?
**A.** Fusion index ([1]; 3.13 µg/ml, mixed culture 5 hours): 0.26; Fusion index ([1]; 3.13 µg/ml, mixed culture 20 hours): 1.50; Fusion index ([1]; 6.25 µg/ml, mixed culture 5 hours): 0.54; Fusion index ([1]; 6.25 µg/ml, mixed culture 20 hours): 2.16; Fusion index [1, 4]: 0.26; Fusion index [1, 5]: 1.37; Fusion index [1, 6]: 0.50; Fusion index [1, 7]: 0.89; Fusion index [1, 8]: 0.32; Fusion index [1, 9]: 0.62; inhibition at 3.13 µg/mL [1, 14]: 51.9%; inhibition at 6.25 µg/mL [1, 14]: 0%; inhibition at 12.5 µg/mL [1, 14]: 51.9%; inhibition at 25 µg/mL [1, 14]: 7.4%; inhibition at 50 µg/mL [1, 14]: 40.7%; inhibition at 3.13 µg/mL [1, 15]: 21.1%; inhibition at 6.25 µg/mL [1, 15]: 0%; inhibition at 12.5 µg/mL [1, 15]: 27.9%; inhibition at 25 µg/mL [1, 15]: 53.2%; inhibition at 50 µg/mL [1, 15]: 67.4%

**Q.** With OC[C@@H]1[C@@H](O)[C@H](O)[C@@H](O)CN1CC=Cc1cccc(F)c1 [Example 4, N-[3-(3-fluorophenyl) 2-propenyl]-1-deoxynojirimycin] as the molecule, how does the Fusion index ([1]; 2.5 µg/ml, mixed culture 20 hours) read?
**A.** 1.38

**Q.** And the Fusion index ([1]; 5 µg/ml, mixed culture 20 hours)?
**A.** 1.04

**Q.** What about the Fusion index ([1]; 10 µg/ml, mixed culture 20 hours) of the same molecule?
**A.** 0.52

**Q.** What about the Fusion index ([1]; 20 µg/ml, mixed culture 20 hours) of the same molecule?
**A.** 0.32

**Q.** What about the Fusion index ([1]; 40 µg/ml, mixed culture 20 hours) of the same molecule?
**A.** 0.01

**Q.** And the inhibition at 2.5 µg/mL [1, 15]?
**A.** 28%

**Q.** What about the inhibition at 5 µg/mL [1, 15] of the same molecule?
**A.** 46%

**Q.** What about the inhibition at 10 µg/mL [1, 15] of the same molecule?
**A.** 73%

**Q.** And the inhibition at 20 µg/mL [1, 15]?
**A.** 83%

**Q.** What about the inhibition at 40 µg/mL [1, 15] of the same molecule?
**A.** 99%

**Q.** And the IC50 [1, 16]?
**A.** 5 to 10 µg/mL (≈ 16.8 to 33.6 µM)

**Q.** How did the IC50 [1, 3] turn out when OC[C@@H]1[C@@H](O)[C@H](O)[C@@H](O)CN1CCCCc1ccccc1 [Example 5, N-(4-Phenylbutyl)-1-deoxynojirimycin] was run?
**A.** 5 to 10 µg/mL (≈ 16.9 to 33.9 µM)

**Q.** OC[C@@H]1[C@@H](O)[C@H](O)[C@@H](O)CN1CC=Cc1cccc(Cl)c1 [Example 6, N-[3-(3-Chlorophenyl)-2-propenyl]-1-deoxynojirimycin] was tested. Which “50% Inhibitory Concentration (IC₅₀)” value [1] did it give?
**A.** 50 µg/mL

**Q.** With OC[C@@H]1[C@@H](O)[C@H](O)[C@@H](O)CN1CC=Cc1ccccc1Cl [Example 7, N-[3-(2-Chlorophenyl)-2-propenyl]-1-deoxynojirimycin] as the molecule, how does the “50% Inhibitory Concentration (IC₅₀)” value [1] read?
**A.** 60 µg/mL

**Q.** For OC[C@@H]1[C@@H](O)[C@H](O)[C@@H](O)CN1CCC=Cc1ccc(Cl)cc1 [Example 8, N-[4-(4-Chlorophenyl)-3-butenyl]-1-deoxynojirimycin], which “50% Inhibitory Concentration (IC₅₀)” value [1] is on record?
**A.** 70 µg/mL

**Q.** With OC[C@@H]1[C@@H](O)[C@H](O)[C@@H](O)CN1CC=C(c1ccc(F)cc1)c1ccc(F)cc1 [Example 9, N-[3,3-Di(4-fluorophenyl)-2-propenyl]-1-deoxynojirimycin] as the molecule, how does the “50% Inhibitory Concentration (IC₅₀)” value [1] read?
**A.** >100 µg/mL

**Q.** Cc1ccc(CCCN2C[C@H](O)[C@@H](O)[C@H](O)[C@H]2CO)cc1 [Example 10, N-[3-(4-Methylphenyl)-propyl]-1-deoxynojirimycin] was tested. Which IC50 [1, 3] did it give?
**A.** 5 to 10 µg/mL (≈ 16.9 to 33.9 µM)

**Q.** For OC[C@@H]1[C@@H](O)[C@H](O)[C@@H](O)CN1CCCc1ccc(F)cc1 [Example 11, N-[3-(4-Fluorophenyl)-propyl]-1-deoxynojirimycin], which IC50 [1, 3] is on record?
**A.** 5 to 10 µg/mL (≈ 16.7 to 33.4 µM)

**Q.** How did the “50% Inhibitory Concentration (IC₅₀)” value [1] turn out when OC[C@@H]1[C@@H](O)[C@H](O)[C@@H](O)CN1CC=Cc1ccc(F)cc1 [Example 12, N-[3(4-Fuluorophenyl)-2-propenyl]-1-deoxynojirimycin] was run?
**A.** 10 µg/mL

**Q.** OC[C@@H]1[C@@H](O)[C@H](O)[C@@H](O)CN1CC=Cc1ccccc1F [Example 13, N-[3-(2-Fluorophenyl)-2-propenyl]-1-deoxynojirimycin] was tested. Which IC50 [1, 3] did it give?
**A.** 2.5 to 5 µg/mL (≈ 8.41 to 16.8 µM)

**Q.** With OC[C@@H]1[C@@H](O)[C@H](O)[C@@H](O)CN1CCC=Cc1ccccc1F [Example 14, N-[4-(2-Fluorophenyl)-3-butenyl]-1-deoxynojirimycin] as the molecule, how does the IC50 [1, 3] read?
**A.** 5 to 10 µg/mL (≈ 16.1 to 32.1 µM)

**Q.** For OC[C@@H]1[C@@H](O)[C@H](O)[C@@H](O)CN1CCCC(F)(F)F [Example 15, N-(4,4,4-Trifluorobutyl)-1-deoxynojirimycin], which IC50 [1, 3] is on record?
**A.** 5 to 10 µg/mL (≈ 18.3 to 36.6 µM)

**Q.** For OC[C@@H]1[C@@H](O)[C@H](O)[C@@H](O)CN1CCCCC(F)(F)F [Example 16, N-(5,5,5-Trifluoropentyl)-1-deoxynojirimycin], which IC50 [1, 3] is on record?
**A.** 2.5 to 5 µg/mL (≈ 8.7 to 17.4 µM)
